Patent US11535838B2, “Serine protease molecules and therapies” (Research Development Foundation, priority 2012, dated 2022)

Key:
[1] = Enzymatic assay of GrB component, continuous colorimetric assay; format: biochemical; conditions: substrate BAADT, 25° C., native GrB as standard
Procedure: The enzymatic activity of the GrB component was determined in a continuous colorimetric assay using N-α-t-butoxycarbonyl-L-alanyl-L-alanyl-L-aspartyl-thiobenzylester (BAADT) as a specific substrate (Liu et al., 2003). Assays consisted of commercial human GrB (Enzyme Systems Products, Livermore, Calif.) or GrB-based fusion proteins in BAADT at 25° C. […] The specific activity of GrB-based fusion proteins was calculated using native GrB as the standard.

[2] = test system: eB-1; test: In vitro cytotoxic effects of GrB-based fusions, crystal violet; format: cell-based, human; conditions: Table 11, eB-1, 72 h exposure
[3] = test system: MDA MB435; test: as above; format: cell-based; conditions: Table 11, MDA MB435, 72 h exposure
[4] = test system: A375-M; test: Cytotoxic effects of GrB/ZME fusion constructs; format: cell-based; conditions: specifically targeted by ZME
Source text: (§1) GrB-ZME(VL-VH) fusion proteins were constructed as indicated above using different linkers between the GrB and ZME sequences. The construct SL used the G4S linker; LL was four repeats of the HL (EAAAK (SEQ ID NO: 14)) linker and X was a G4S+218 linker.
(§2) Two glycosylation sites were identified within the GrB molecule (d1 and d2) and modified the GrB/scFvMEL fusion construct as detailed above and as shown in FIG. 4 (d1 indicates N51S; d2 indicates N84A). Each glycosylation site was modified and then a molecule containing both modifications was generated. The individual modifications had little effect on in vitro GrB enzymatic activity (see, e.g., FIG. 4). […] There was little impact on the non-specific cell line (SKOV3).
(§3) Three expression constructs were developed and tested. (LL) encoded GrB-HL-HL-HL-HL-ZME(VL-VH), plasmid designation pSECTag-GrB-HL4-ZME; (E) encoded GrB HL HL HL HL T1 ZME(VL-VH), plasmid designation pSECTag-GrB-HL4-T1-ZME; and (J) (LL) encoded GrB (d1, A, N) HL HL HL HL ZME(VL-VH), plasmid designation pSECTag-GrB-HL4-ZME. The constructs were expressed and tested. […] Incorporation of d1 modified GrB into the construct further increased the specific cytotoxicity of the construct with no impact on non-specific cytotoxicity.
(§4) These constructs were expressed and tested.
(§5) These constructs were expressed and tested. […] Incorporation of the “26” molecule increased the toxicity to target and non-target cells alike.

[5] = test system: SKOV3; test: Cytotoxic effects of GrB/ZME fusion constructs; format: cell-based; conditions: SKOV3, non-specific control
Source text: as §1, §2, §3, §4, §5

[6] = test system: AAB-527; test: Cytotoxic effects of GrB/ZME fusion constructs; format: cell-based; conditions: AAB-527, specifically targeted by ZME
Source text: as §1, §2, §3, §4, §5

[7] = test system: SK-MEF-28; test: Cytotoxicity of GrB-Fc-IT4 constructs; format: cell-based
Source text: (§6) As an initial test of this arrangement a construct was produced comprising GrB-Fc-IT4 (scFv). Specifically, the IT4 scFv targets the product of the tumor necrosis factor receptor superfamily, member 12A (TNFRSF12A) gene and was previously described in Zhou et al., 2011, which is incorporated herein by reference. The sequence of the fusion protein produced by the construct is provided as SEQ ID NO: 45. The constructs was expressed and purified as detailed supra and tested for activity against a panel of cells lines (using GrB alone a control).

[8] = test system: WM35; test: Cytotoxicity of GrB-Fc-IT4 constructs; format: cell-based
Source text: as §6

[9] = test system: Capan-1; test: Cytotoxicity of GrB-Fc-IT4 constructs; format: cell-based
Source text: as §6

[10] = test system: A549; test: Cytotoxicity of GrB-Fc-IT4 constructs; format: cell-based
Source text: as §6

[11] = test system: WM35P2N1; test: Cytotoxicity of GrB-Fc-IT4 constructs; format: cell-based
Source text: as §6

[12] = test system: MEF 3.5 −/−; test: Cytotoxicity of GrB-Fc-IT4 constructs; format: cell-based
Source text: as §6

[13] = test system: H2073; test: Cytotoxicity of GrB-Fc-IT4 constructs; format: cell-based
Source text: as §6

[14] = test system: SB2; test: Cytotoxicity of GrB-Fc-IT4 constructs; format: cell-based
Source text: as §6

[15] = test system: H520; test: Cytotoxicity of GrB-Fc-IT4 constructs; format: cell-based
Source text: as §6

[16] = test system: HT-29; test: Cytotoxicity of GrB-Fc-IT4 constructs; format: cell-based
Source text: as §6

[17] = test system: A375; test: Cytotoxicity of GrB-Fc-IT4 constructs; format: cell-based
Source text: as §6

[18] = test system: MDA-MB-231; test: Cytotoxicity of GrB-Fc-IT4 constructs; format: cell-based
Source text: as §6

[19] = test system: MDA-MB-435; test: Cytotoxicity of GrB-Fc-IT4 constructs; format: cell-based
Source text: as §6

[20] = test system: MCF-7; test: Cytotoxicity of GrB-Fc-IT4 constructs; format: cell-based
Source text: as §6

[21] = test system: H1975; test: Cytotoxicity of GrB-Fc-IT4 constructs; format: cell-based
Source text: as §6

[22] = test system: H1437; test: Cytotoxicity of GrB-Fc-IT4 constructs; format: cell-based
Source text: as §6

[23] = test system: L3.6p1; test: Cytotoxicity of GrB-Fc-IT4 constructs; format: cell-based
Source text: as §6

[24] = test system: H358; test: Cytotoxicity of GrB-Fc-IT4 constructs; format: cell-based
Source text: as §6

[25] = test system: HCC2279; test: Cytotoxicity of GrB-Fc-IT4 constructs; format: cell-based
Source text: as §6

[26] = test system: AsPc-1; test: Cytotoxicity of GrB-Fc-IT4 constructs; format: cell-based
Source text: as §6

[27] = test system: Capan-2; test: Cytotoxicity of GrB-Fc-IT4 constructs; format: cell-based
Source text: as §6

[28] = test system: HCC827; test: Cytotoxicity of GrB-Fc-IT4 constructs; format: cell-based
Source text: as §6

[29] = test system: MDA-MD-231-Luc; test: Cytotoxicity of GrB-Fc-IT4 constructs; format: cell-based
Source text: as §6

[30] = test system: H3255; test: Cytotoxicity of GrB-Fc-IT4 constructs; format: cell-based
Source text: as §6

[31] = test system: WM35; test: Cytotoxic effects of GrB versus GrB-TWEAK; format: cell-based
Source text: (§7) Further GrB expression constructs were developed and tested. (GrB) encoded GrB, plasmid designation pSECTag-GrB. […] These constructs were expressed and tested.

[32] = test system: HeyA8-MDR; test: Cytotoxic effects of GrB versus GrB-TWEAK; format: cell-based
Source text: as §7

[33] = test system: HeyA8; test: Cytotoxic effects of GrB versus GrB-TWEAK; format: cell-based
Source text: as §7

[34] = test system: ES-2; test: Cytotoxic effects of GrB versus GrB-TWEAK; format: cell-based
Source text: as §7

[35] = test system: Jurkat; test: Cytotoxic effects of GrB versus GrB-TWEAK; format: cell-based
Source text: as §7

[36] = test system: A375-M; test: Cytotoxic effects of GrB versus GrB-TWEAK; format: cell-based
Source text: as §7

[37] = test system: SK-Mel-5; test: Cytotoxic effects of GrB versus GrB-TWEAK; format: cell-based
Source text: as §7

[38] = test system: U87MG; test: Cytotoxic effects of GrB versus GrB-TWEAK; format: cell-based
Source text: as §7

[39] = test system: SB2; test: Cytotoxic effects of GrB versus GrB-TWEAK; format: cell-based
Source text: as §7

[40] = test system: HT-29; test: Cytotoxic effects of GrB versus GrB-TWEAK; format: cell-based
Source text: as §7

[41] = test system: T-24; test: Cytotoxic effects of GrB versus GrB-TWEAK; format: cell-based
Source text: as §7

[42] = test system: MDA-MB435; test: Cytotoxic effects of GrB versus GrB-TWEAK; format: cell-based
Source text: as §7

[43] = test system: HT-1080; test: Cytotoxic effects of GrB versus GrB-TWEAK; format: cell-based
Source text: as §7

[44] = test system: MDA-MB435/MDR1; test: Cytotoxic effects of GrB versus GrB-TWEAK; format: cell-based
Source text: as §7

[45] = test system: BxPC-3; test: Cytotoxic effects of GrB versus GrB-TWEAK; format: cell-based
Source text: as §7

[46] = test system: SKBR3; test: Cytotoxic effects of GrB versus GrB-TWEAK; format: cell-based
Source text: as §7

[47] = test system: SK-Mel-1; test: Cytotoxic effects of GrB versus GrB-TWEAK; format: cell-based
Source text: as §7

[48] = test system: MCF-7; test: Cytotoxic effects of GrB versus GrB-TWEAK; format: cell-based
Source text: as §7

[49] = test system: HEY; test: Cytotoxic effects of GrB versus GrB-TWEAK; format: cell-based
Source text: as §7

[50] = test system: OC-316; test: Cytotoxic effects of GrB versus GrB-TWEAK; format: cell-based
Source text: as §7

[51] = test system: SK-Mel-28; test: Cytotoxic effects of GrB versus GrB-TWEAK; format: cell-based
Source text: as §7

[52] = test system: A172; test: Cytotoxic effects of GrB versus GrB-TWEAK; format: cell-based
Source text: as §7

[53] = test system: A2780; test: Cytotoxic effects of GrB versus GrB-TWEAK; format: cell-based
Source text: as §7

[54] = test system: AAB-527; test: Cytotoxic effects of GrB versus GrB-TWEAK; format: cell-based
Source text: as §7

[55] = test system: MDA-MB231; test: Cytotoxic effects of GrB versus GrB-TWEAK; format: cell-based
Source text: as §7

[56] = test system: NCI-N87; test: In vitro cytotoxic effects of GrB-based fusions, crystal violet; format: cell-based; conditions: Table 11, NCI-N87, 72 h exposure
[57] = test system: Calu3; test: as above; format: cell-based; conditions: Table 11, Calu3, 72 h exposure
[58] = test system: MDA MB453; test: as above; format: cell-based, human; conditions: Table 11, MDA MB453, 72 h exposure
[59] = test system: MDA-MB-453; test: Cytotoxic effects of GrB/4D5 fusion constructs with and without a translocation domain; format: cell-based; conditions: MDA-MB-453, Her2 Exp. High
Source text: (§8) Further GrB expression constructs were developed and tested.
as §4

[60] = test system: Calu-3; test: as above; format: cell-based; conditions: Calu-3, Her2 Exp. High
Source text: as §8, §4

[61] = test system: Me-180; test: as above; format: cell-based; conditions: Me-180, Her2 Exp. none
Source text: as §8, §4

[62] = test system: SKBR3; test: as above; format: cell-based; conditions: SKBR3, Her2 Exp. High
Source text: as §8, §4

[63] = test system: NCI-N87; test: as above; format: cell-based; conditions: NCI-N87, Her2 Exp. High
Source text: as §8, §4

[64] = test system: SKOV3; test: as above; format: cell-based; conditions: SKOV3, Her2 Exp. High
Source text: as §8, §4

[65] = test system: Me180; test: In vitro cytotoxic effects of GrB-based fusions, crystal violet; format: cell-based, human; conditions: Table 11, Me180, 72 h exposure

Substance: native GrB: commercial human GrB (Enzyme Systems Products) used as the standard
- GrB enzymatic activity [1]: 1.19×10^5 U/μmoL

Substance: GrB: recombinant Granzyme B without targeting moiety, plasmid pSECTag-GrB, used as control
- IC50 [2]: > 1500 nM
- IC50 [3]: > 1500 nM
- IC50 [4]: > 2000 nM
- IC50 [5]: > 2000 nM
- IC50 [6]: > 2000 nM
- IC50 [7]: > 1920 nM
- IC50 [8]: > 1920 nM
- IC50 [9]: 2340 nM
- IC50 [10]: 602 nM
- IC50 [11]: 1540 nM
- IC50 [12]: > 3200 nM
- IC50 [13]: > 3200 nM
- IC50 [14]: > 1920 nM
- IC50 [15]: 259 nM
- IC50 [16]: > 3200 nM
- IC50 [17]: > 1920 nM
- IC50 [18]: > 1930 nM
- IC50 [19]: 445 nM
- IC50 [20]: > 1920 nM
- IC50 [21]: > 3200 nM
- IC50 [22]: > 3200 nM
- IC50 [23]: 1220 nM
- IC50 [24]: > 3200 nM
- IC50 [25]: 526 nM
- IC50 [26]: 1300 nM
- IC50 [27]: > 3200 nM
- IC50 [28]: 1410 nM
- IC50 [29]: 3550 nM
- IC50 [30]: 2360 nM
- IC50 [31]: > 1920 nM
- IC50 [32]: > 700 nM
- IC50 [33]: 841 nM
- IC50 [34]: 1440 nM
- IC50 [35]: > 700 nM
- IC50 [36]: > 1920 nM
- IC50 [37]: 3010 nM
- IC50 [38]: 825 nM
- IC50 [39]: > 1920 nM
- IC50 [40]: 800 nM
- IC50 [41]: 2630 nM
- IC50 [42]: 445 nM
- IC50 [43]: 1300 nM
- IC50 [44]: 447 nM
- IC50 [45]: > 1920 nM
- IC50 [46]: 660 nM
- IC50 [47]: > 1920 nM
- IC50 [48]: > 1920 nM
- IC50 [49]: 1020 nM
- IC50 [50]: > 1920 nM
- IC50 [51]: > 1920 nM
- IC50 [52]: 1910 nM
- IC50 [53]: > 1300 nM
- IC50 [54]: 1040 nM
- IC50 [55]: > 1920 nM
- IC50 [56]: > 1500 nM
- IC50 [57]: > 1500 nM
- IC50 [58]: > 1500 nM
- IC50 [59]: > 1000 nM
- IC50 [60]: > 1000 nM
- IC50 [61]: > 1000 nM
- IC50 [62]: > 1000 nM
- IC50 [63]: > 1000 nM
- IC50 [64]: > 1000 nM
- IC50 [65]: > 1500 nM
